Measured values reported in patent publication US9562057B2, “(Thieno[2,3-b][1,5]benzoxazepin-4-yl)piperazin-1-yl compounds as dual activity H1 inverse agonists/5-HT2A antagonists” (Eli Lilly and Company, priority 2013, dated 2017).
Counter-ions that a name gives are not always drawn.

Assays:
5-HT2B [1] = target: T1, 5-HT2B (Homo sapiens, UniProt P41595); experiment: 5-HT2B binding
Description: (§1) Further, the compounds of the invention may be tested in binding assays and functional activity assays by well known methods for other physiologically important receptors such as, but not limited to, the hERG channel, other serotonin receptors (specifically 5-HT1B and 5-HT1D receptors, lack of agonist activity at 5-HT2B receptors, 5-HT2C, 5-HT5, 5-HT6, and 5-HT7 receptors), dopaminergic receptors (specifically D1, D2, and D3), GABAA receptors, adrenergic receptors and monoamine transporters.

5-HT2B [2] = target: T1, 5-HT2B; experiment: 5-HT2B agonist functional activity; assay type: biochemical; conditions: agonist mode
Description: as §1

5-HT2B [3] = target: T1, 5-HT2B; experiment: 5-HT2B antagonist functional activity; assay type: biochemical; conditions: antagonist mode
Description: as §1

[4] = target: T2, recombinant 5-HT2C receptor (human) (Homo sapiens, UniProt P28335); experiment: 5-HT2C competition binding assay ([125I]-(±)DOI, SPA)
T2 construct: expressed in transfected cells; host or cells: AV-12
T2 sequence (P28335 33-458): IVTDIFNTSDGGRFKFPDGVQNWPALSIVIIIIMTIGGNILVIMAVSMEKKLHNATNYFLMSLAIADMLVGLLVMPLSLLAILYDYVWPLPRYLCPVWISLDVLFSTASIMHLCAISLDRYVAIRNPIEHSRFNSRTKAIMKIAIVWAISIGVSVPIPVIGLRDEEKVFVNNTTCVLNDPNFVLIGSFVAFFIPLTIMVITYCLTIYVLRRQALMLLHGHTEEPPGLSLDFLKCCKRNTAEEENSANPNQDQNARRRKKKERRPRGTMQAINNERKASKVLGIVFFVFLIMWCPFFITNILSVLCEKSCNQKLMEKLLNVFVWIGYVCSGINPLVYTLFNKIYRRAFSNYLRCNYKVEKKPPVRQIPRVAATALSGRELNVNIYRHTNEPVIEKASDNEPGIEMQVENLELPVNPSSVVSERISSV
Description: [^125I]-(±)DOI binding experiments are carried out in SPA 96-well format. Membranes used in this assay are prepared from AV-12 cells stably expressing recombinant 5-HT2C receptor (human). The incubation is initiated by the addition of a mixture of WGA PVT SPA beads (0.5 mg/well, Perkin Elmer (MA, USA), RPNQ0001) and 2.5 μg membranes to assay buffer (50 mM Tris-HCl, 10 mM MgCl2, 0.5 mM EDTA, 10 μM pargyline, 0.1% ascorbic acid, pH7.4) containing 0.2 nM [[^125I]-(±)DOI and varying concentrations of the test compound (10 point concentration response curves). Non-specific binding is determined in the presence of 20 μM 1-(1-naphthyl) piperazine. Samples are incubated for 4 hr. at room temperature (22° C.) and then read in a Microbeta® Trilux.
Binding data analysis Curves are evaluated using a 4-parameter logistic nonlinear equation to obtain the concentration of competitor causing 50% inhibition of radioligand binding (IC50). Equilibrium dissociation constants (Ki) are calculated according to the equation Ki=IC50/(1+L/Kd), where L equals the concentration of radioligand used in the experiment and Kd equals the equilibrium dissociation constant of the radioligand for the receptor, determined from standard saturation analysis or homologous competition experiments. […]

Dopamine D1 = Dopamine D1 (Homo sapiens, UniProt P21728); experiment: Dopamine D1 binding
Chain of Dopamine D1 (P21728 whole entry): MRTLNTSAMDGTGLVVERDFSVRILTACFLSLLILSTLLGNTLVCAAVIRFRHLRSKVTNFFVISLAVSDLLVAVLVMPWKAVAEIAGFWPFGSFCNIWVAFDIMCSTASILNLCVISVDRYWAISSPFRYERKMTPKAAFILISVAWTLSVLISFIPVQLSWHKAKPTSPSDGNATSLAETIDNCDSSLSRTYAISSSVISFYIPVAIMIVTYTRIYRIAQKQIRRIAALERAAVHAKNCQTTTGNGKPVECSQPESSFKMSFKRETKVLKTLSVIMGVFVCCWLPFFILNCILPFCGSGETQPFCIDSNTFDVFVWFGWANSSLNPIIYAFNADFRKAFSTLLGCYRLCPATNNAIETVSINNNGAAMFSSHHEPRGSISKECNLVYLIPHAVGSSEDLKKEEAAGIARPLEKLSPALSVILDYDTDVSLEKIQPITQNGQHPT
Description: as §1

5-HT1D = 5-HT1D (Homo sapiens, UniProt P28221); experiment: 5-HT1D binding
Chain of 5-HT1D (P28221 whole entry, species assumed): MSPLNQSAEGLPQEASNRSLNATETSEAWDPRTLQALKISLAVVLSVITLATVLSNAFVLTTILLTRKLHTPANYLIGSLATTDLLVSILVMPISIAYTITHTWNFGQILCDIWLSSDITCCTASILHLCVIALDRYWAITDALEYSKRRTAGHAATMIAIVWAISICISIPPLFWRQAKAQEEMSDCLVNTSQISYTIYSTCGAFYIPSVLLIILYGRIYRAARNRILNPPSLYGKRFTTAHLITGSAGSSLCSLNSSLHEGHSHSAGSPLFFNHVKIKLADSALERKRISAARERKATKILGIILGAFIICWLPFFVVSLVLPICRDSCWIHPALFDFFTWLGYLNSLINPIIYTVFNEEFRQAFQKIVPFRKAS
Description: as §1

5-HT5 = 5-HT5 (Homo sapiens, UniProt P47898); experiment: 5-HT5 binding
Chain of 5-HT5 (P47898 whole entry, species assumed): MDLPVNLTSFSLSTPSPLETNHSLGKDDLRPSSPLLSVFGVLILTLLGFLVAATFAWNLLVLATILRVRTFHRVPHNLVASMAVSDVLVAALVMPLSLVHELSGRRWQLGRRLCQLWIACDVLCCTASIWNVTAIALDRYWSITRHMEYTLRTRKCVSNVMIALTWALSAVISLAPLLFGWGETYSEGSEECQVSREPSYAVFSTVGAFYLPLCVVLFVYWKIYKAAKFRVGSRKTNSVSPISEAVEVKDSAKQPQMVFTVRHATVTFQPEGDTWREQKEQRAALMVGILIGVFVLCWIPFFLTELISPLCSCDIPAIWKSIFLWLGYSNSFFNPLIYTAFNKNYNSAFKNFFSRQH
Description: as §1

Adrenergic alpha1B = Adrenergic alpha1B (Homo sapiens, UniProt P35368); experiment: Adrenergic alpha1B binding
Chain of Adrenergic alpha1B (P35368 whole entry): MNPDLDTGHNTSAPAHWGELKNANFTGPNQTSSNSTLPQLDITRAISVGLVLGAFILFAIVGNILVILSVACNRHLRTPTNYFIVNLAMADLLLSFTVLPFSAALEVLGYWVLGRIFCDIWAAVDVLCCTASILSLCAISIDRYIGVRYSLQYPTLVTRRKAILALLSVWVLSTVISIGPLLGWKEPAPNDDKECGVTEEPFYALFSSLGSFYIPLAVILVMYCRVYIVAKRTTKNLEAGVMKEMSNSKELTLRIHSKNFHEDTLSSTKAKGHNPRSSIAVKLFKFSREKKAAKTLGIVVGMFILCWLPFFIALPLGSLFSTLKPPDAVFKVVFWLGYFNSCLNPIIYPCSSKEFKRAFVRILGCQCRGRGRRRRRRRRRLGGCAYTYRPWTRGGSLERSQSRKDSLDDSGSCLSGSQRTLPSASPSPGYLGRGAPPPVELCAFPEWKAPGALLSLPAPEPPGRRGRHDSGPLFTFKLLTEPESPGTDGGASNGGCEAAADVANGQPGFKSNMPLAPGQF
Description: as §1

Serotonin Transporter = Serotonin Transporter (Homo sapiens, UniProt P31645); experiment: Serotonin transporter binding
Chain of Serotonin Transporter (P31645 whole entry): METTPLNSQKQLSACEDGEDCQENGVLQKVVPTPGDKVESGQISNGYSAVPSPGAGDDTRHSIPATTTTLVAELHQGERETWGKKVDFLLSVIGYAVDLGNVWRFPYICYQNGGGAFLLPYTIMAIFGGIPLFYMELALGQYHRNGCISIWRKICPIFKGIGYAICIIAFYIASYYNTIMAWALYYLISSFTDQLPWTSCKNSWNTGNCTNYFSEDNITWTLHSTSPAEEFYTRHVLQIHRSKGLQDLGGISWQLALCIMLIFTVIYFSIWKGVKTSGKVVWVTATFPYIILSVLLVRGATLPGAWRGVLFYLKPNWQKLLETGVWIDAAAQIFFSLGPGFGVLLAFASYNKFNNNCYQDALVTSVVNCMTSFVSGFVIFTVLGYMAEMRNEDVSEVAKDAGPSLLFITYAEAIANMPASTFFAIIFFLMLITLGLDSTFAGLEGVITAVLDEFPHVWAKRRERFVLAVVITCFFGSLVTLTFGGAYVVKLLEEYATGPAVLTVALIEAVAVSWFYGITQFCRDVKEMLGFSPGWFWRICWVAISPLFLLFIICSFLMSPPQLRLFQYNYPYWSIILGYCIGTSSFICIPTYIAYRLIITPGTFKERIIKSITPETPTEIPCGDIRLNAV
Description: as §1

Dopamine Transporter = Dopamine Transporter (Homo sapiens, UniProt Q01959); experiment: Dopamine transporter binding
Chain of Dopamine Transporter (Q01959 whole entry): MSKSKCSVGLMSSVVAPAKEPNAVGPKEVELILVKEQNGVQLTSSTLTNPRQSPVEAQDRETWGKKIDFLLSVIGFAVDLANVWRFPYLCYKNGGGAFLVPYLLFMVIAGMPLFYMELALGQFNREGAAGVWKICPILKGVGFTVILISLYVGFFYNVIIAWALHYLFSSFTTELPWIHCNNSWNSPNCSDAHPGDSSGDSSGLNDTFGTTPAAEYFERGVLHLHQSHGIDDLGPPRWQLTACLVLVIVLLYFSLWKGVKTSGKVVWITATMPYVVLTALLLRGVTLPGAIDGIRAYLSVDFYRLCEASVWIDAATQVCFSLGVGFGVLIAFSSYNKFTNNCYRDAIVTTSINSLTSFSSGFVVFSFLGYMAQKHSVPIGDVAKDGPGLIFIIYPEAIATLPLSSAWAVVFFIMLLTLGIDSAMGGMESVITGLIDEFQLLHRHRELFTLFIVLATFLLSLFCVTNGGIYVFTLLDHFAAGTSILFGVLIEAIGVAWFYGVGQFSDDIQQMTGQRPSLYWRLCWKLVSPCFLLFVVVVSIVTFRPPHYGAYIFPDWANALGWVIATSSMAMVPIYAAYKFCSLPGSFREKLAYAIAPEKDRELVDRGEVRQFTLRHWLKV
Description: as §1

5-HT2A Receptor = target: T3, 5-HT2A Receptor (Rattus norvegicus, UniProt P14842); experiment: 5-HT2A receptor occupancy in vivo (MDL 100907 tracer); conditions: male Sprague-Dawley rats, oral gavage, 1 hr. before tracer, absolute ED50
T3 construct: samples of the frontal cortex and cerebellum are removed; from tissue; host or cells: rat brain (frontal cortex versus cerebellum), in vivo
T3 sequence (P14842 whole entry): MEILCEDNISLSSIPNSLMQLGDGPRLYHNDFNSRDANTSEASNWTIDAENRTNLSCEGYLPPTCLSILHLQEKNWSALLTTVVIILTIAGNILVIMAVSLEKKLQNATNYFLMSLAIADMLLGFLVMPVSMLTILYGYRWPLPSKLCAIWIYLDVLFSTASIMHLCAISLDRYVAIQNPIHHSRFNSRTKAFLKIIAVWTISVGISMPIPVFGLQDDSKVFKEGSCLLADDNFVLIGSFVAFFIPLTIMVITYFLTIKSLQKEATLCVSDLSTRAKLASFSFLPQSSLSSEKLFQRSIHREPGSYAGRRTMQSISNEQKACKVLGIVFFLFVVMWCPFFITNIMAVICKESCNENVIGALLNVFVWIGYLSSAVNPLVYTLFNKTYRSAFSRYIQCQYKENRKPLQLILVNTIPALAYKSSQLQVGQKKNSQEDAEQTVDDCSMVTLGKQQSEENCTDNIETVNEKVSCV
Description: Briefly, male Sprague-Dawley rats (Harlan Sprague-Dawley, Indianapolis, Ind.) weighing approximately 230-280 grams are given ad lib access to food and water until the beginning of the 3-hr. experimental protocol. 1 mg/kg ketanserin (non-selective 5-HT2A antagonist) is used as a positive control to establish assay validity. Test compounds or control are administered by oral gavage in a vehicle comprised of 20% hydroxypropyl beta-cyclodextrin. MDL 100907 ((R)-(+)-α-(2,3-Dimethoxyphenyl)-1-[2-(4-fluorophenyl)ethyl]-4-piperidinemethanol), a selective 5-HT2A antagonist, is used as a tracer. […] It is at the time of tracer administration that RO is considered to be measured. […] The level of MDL 100907 tracer is measured in each cortical and cerebellar sample. RO is calculated using the well-established ratio method which employs a region of high receptor density representative of total binding (frontal cortex) normalized by an area without or with very low levels of receptor (cerebellum). […]
Cortex and cerebellar samples are weighed and placed in conical centrifuge tubes on ice. […] Standards are prepared by adding known quantities of analyte to brain tissue samples from non-treated rats and processing as described above. […]

T1 sequence (P41595 whole entry, species assumed): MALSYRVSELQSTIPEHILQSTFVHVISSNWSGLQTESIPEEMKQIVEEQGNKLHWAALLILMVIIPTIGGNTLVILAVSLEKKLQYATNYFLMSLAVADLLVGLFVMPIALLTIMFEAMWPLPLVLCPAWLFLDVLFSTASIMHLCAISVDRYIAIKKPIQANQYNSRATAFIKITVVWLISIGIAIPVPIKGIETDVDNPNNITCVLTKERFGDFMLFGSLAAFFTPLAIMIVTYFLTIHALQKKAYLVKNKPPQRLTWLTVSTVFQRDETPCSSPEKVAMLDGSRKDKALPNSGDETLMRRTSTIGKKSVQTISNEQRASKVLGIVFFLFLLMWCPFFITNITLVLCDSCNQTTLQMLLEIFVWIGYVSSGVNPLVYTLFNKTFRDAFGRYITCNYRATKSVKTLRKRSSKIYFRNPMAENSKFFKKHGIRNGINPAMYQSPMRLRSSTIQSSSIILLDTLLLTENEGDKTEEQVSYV

SMILES: Cc1ccc2c(c1)Oc1sc(C3CC3)cc1C(N1CCN(CC(C)(C)C(=O)O)CC1)=N2 [Example 2, 3-[4-(2-Cyclopropyl-8-methyl-thieno[2,3-b][1,5]benzoxazepin-4-yl)piperazin-1-yl]-2,2-dimethyl-propanoic acid dihydrochloride]
- Ki (5-HT2B [1]): 118 nM
- EC50 (5-HT2B [2]): > 10000 nM
- Kb (5-HT2B [3]): 93.4 nM
- Ki [4]: 493 nM
- Ki (Dopamine D1): 996 nM
- Ki (5-HT1D): > 3980 nM
- Ki (5-HT5): 3480 nM
- Ki (Adrenergic alpha1B): > 15500 nM
- Ki (Serotonin Transporter): > 478 nM
- Ki (Dopamine Transporter): > 867 nM
- ED50 (5-HT2A Receptor): 0.41 mg/kg
